“And” between values parts separate entries of the source, which are not always exact repeats. Equal values may be shown once. Inconclusive results and toxic doses are left out. How the source made its calls: active means survival T/C of 150% or more; inactive means T/C below 125% in these data.
System: P388 leukemia ip, CD2F1 mice, survival T/C
Experiment: NCI In Vivo Anticancer Drug Screen. Data for tumor model P388 Leukemia (intraperitoneal) in CD2F1 (CDF1) mice
Conditions: endpoint: median survival time, higher = longer survival
Procedure, shortened: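 Mice carrying the transplanted tumor received test compound or vehicle. Survival was recorded in each group, and the value is the treated-group measurement divided by that of the vehicle-treated control group.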

[1] = dose: 60.0 mg/kg/injection, schedule: Q01DX005 (ip), vehicle: saline with Tween-80
[2] = dose: 120.0 mg/kg/injection, schedule: Q01DX005 (ip), vehicle: saline with Tween-80
[3] = dose: 240.0 mg/kg/injection, schedule: Q01DX005 (ip), vehicle: saline with Tween-80
[4] = dose: 50.0 mg/kg/injection, schedule: Q01DX005 (ip), vehicle: Klucel (hydroxypropylcellulose) (HPC)
[5] = dose: 100.0 mg/kg/injection, schedule: Q01DX005 (ip), vehicle: Klucel (hydroxypropylcellulose) (HPC)
[6] = dose: 100.0 mg/kg/injection, schedule: Q04DX003 (ip), vehicle: saline
[7] = dose: 200.0 mg/kg/injection, schedule: Q04DX003 (ip), vehicle: saline
[8] = dose: 25.0 mg/kg/injection, schedule: Q01DX009 (ip), vehicle: saline with Tween-80
[9] = dose: 50.0 mg/kg/injection, schedule: Q01DX009 (ip), vehicle: saline with Tween-80
[10] = dose: 100.0 mg/kg/injection, schedule: Q01DX009 (ip), vehicle: saline with Tween-80
[11] = dose: 200.0 mg/kg/injection, schedule: Q01DX009 (ip), vehicle: saline with Tween-80
[12] = dose: 60.0 mg/kg/injection, schedule: Q01DX005 (ip), vehicle: Klucel (hydroxypropylcellulose) (HPC)
[13] = dose: 120.0 mg/kg/injection, schedule: Q01DX005 (ip), vehicle: Klucel (hydroxypropylcellulose) (HPC)
[14] = dose: 240.0 mg/kg/injection, schedule: Q01DX005 (ip), vehicle: Klucel (hydroxypropylcellulose) (HPC)
[15] = dose: 25.0 mg/kg/injection, schedule: Q01DX005 (ip), vehicle: Klucel (hydroxypropylcellulose) (HPC)
[16] = dose: 200.0 mg/kg/injection, schedule: Q01DX005 (ip), vehicle: Klucel (hydroxypropylcellulose) (HPC)
[17] = dose: 100.0 mg/kg/injection, schedule: Q01DX009 (ip), vehicle: Klucel (hydroxypropylcellulose) (HPC)
[18] = dose: 200.0 mg/kg/injection, schedule: Q01DX009 (ip), vehicle: Klucel (hydroxypropylcellulose) (HPC)
[19] = dose: 15.0 mg/kg/injection, schedule: Q01DX005 (ip), vehicle: saline with Tween-80
[20] = dose: 30.0 mg/kg/injection, schedule: Q01DX005 (ip), vehicle: saline with Tween-80
[21] = dose: 50.0 mg/kg/injection, schedule: Q01DX005 (ip), vehicle: saline with Tween-80
[22] = dose: 100.0 mg/kg/injection, schedule: Q01DX005 (ip), vehicle: saline with Tween-80
[23] = dose: 200.0 mg/kg/injection, schedule: Q01DX005 (ip), vehicle: saline with Tween-80

Measured: T/C

COc1ccc(CCNC(=O)C2CC3CCCCN3C2C)cc1OC (configuration not stated)
inactive: [1] 99 % of control | [2] 95 % of control | [3] 94 % of control

Cc1ccc(S(=O)(=O)NN=c2c3ccccc3c3nc4ccccc4nc3c3ccccc23)cc1
inactive: [4] 90 % of control | [5] 98 % of control

O=C1CC(C(Cl)(Cl)Cl)O1 (configuration not stated)
inactive: dose: 25.0 mg/kg/injection, schedule: Q04DX003 (ip), vehicle: saline 97 % of control | dose: 50.0 mg/kg/injection, schedule: Q04DX003 (ip), vehicle: saline 97 % of control | [6] 99 % of control | [7] 99 % of control

CC1=C(C)SC(=S)NN1
inactive: dose: 3.12 mg/kg/injection, schedule: Q01DX009 (ip), vehicle: saline 96 % of control | dose: 6.25 mg/kg/injection, schedule: Q01DX009 (ip), vehicle: saline 100 % of control | dose: 12.5 mg/kg/injection, schedule: Q01DX009 (ip), vehicle: saline 100 % of control

O=c1[nH]cc(Br)c2sccc12
inactive: [8] 109 % of control | [9] 109 % of control | [10] 109 % of control

C=CCC12CC(O)C(O)CC1(OC)OC(c1cc(OC)c(OC)c(OC)c1)C2C (configuration not stated)
inactive: dose: 1.25 mg/kg/injection, schedule: Q01DX005 (ip), vehicle: acid diluted with saline 102 % of control | dose: 2.5 mg/kg/injection, schedule: Q01DX005 (ip), vehicle: acid diluted with saline 102 % of control | dose: 5.0 mg/kg/injection, schedule: Q01DX005 (ip), vehicle: acid diluted with saline 98 % of control | dose: 10.0 mg/kg/injection, schedule: Q01DX005 (ip), vehicle: acid diluted with saline 102 % of control

Nc1ncnc2c1c(C(=O)O)cn2C1OC(CO)C(O)C1O (configuration not stated)
inactive: dose: 25.0 mg/kg/injection, schedule: Q04DX003 (ip), vehicle: saline with Tween-80 120 % of control | [9] 118 % of control | [10] 86 % of control

C=CCNC(=O)c1ccccc1SC(C)=O
inactive: [9] 117 % of control and 119 % of control | [10] 120 % of control | [11] 114 % of control

C[C@]12C=CC(=O)C=C1CC[C@H]1[C@@H]3CCC(=O)O[C@@]3(C)CC(=O)[C@@]12F
inactive: dose: 100.0 mg/kg/injection, schedule: Q04DX003 (ip), vehicle: saline with Tween-80 91 % of control | dose: 200.0 mg/kg/injection, schedule: Q04DX003 (ip), vehicle: saline with Tween-80 95 % of control | dose: 400.0 mg/kg/injection, schedule: Q04DX003 (ip), vehicle: saline with Tween-80 100 % of control

COC(=O)C1=C(N2CCCC2)C2c3ccccc3SC12C(=O)OC (configuration not stated)
inactive: [12] 104 % of control | [13] 98 % of control | [14] 94 % of control

CCOC(=O)C1=CNc2c(C#N)cnn2C1(C(=O)OCC)c1c[nH]c2ccccc12 (configuration not stated)
inactive: [15] 109 % of control | [4] 102 % of control | [5] 98 % of control | [16] 109 % of control

CC(=O)OCC1OC(n2cnc3c(=O)n(S(=O)(=O)c4ccc(C)cc4)cnc32)C(OC(C)=O)C1OC(C)=O (configuration not stated)
inactive: [1] 103 % of control | [2] 106 % of control | [3] 100 % of control

Nc1nnc2nc(C(C(=O)c3ccc(O)cc3O)c3nc4nnc(N)n4[nH]c3=O)c(=O)[nH]n12
inactive: [1] 102 % of control | [2] 98 % of control | [3] 104 % of control

C/C=C/C(=O)OC(C)CCC(CC)CCCC (configuration not stated)
inactive: [17] 100 % of control | [18] 96 % of control | dose: 400.0 mg/kg/injection, schedule: Q01DX009 (ip), vehicle: Klucel (hydroxypropylcellulose) (HPC) 91 % of control

Cc1cc(NCCCCCCNc2cc(C)[n+](C)c3c(Cl)cccc23)c2cccc(Cl)c2[n+]1C
inactive: dose: 3.12 mg/kg/injection, schedule: Q01DX005 (ip), vehicle: suspension in saline 108 % of control | dose: 6.25 mg/kg/injection, schedule: Q01DX005 (ip), vehicle: suspension in saline 99 % of control | dose: 12.5 mg/kg/injection, schedule: Q01DX005 (ip), vehicle: suspension in saline 108 % of control

ICC1Cc2ccccc2O1 (configuration not stated)
inactive: [9] 99 % of control | [10] 101 % of control | [11] 103 % of control

CC1(C)COP(=O)(c2ccccc2)N1 (configuration not stated)
inactive: [1] 103 % of control | [2] 107 % of control | [3] 101 % of control

O=C1OCc2cc(O)ccc21
inactive: [4] 102 % of control | [5] 100 % of control | [16] 104 % of control

CC/C([O-])=C1/C(=O)N(c2ccccc2)N=C1C.CC/C([O-])=C1/C(=O)N(c2ccccc2)N=C1C.[Cu+2]
inactive: [19] 100 % of control | [20] 107 % of control | [1] 91 % of control and 94 % of control | [2] 100 % of control

O=C(OCCn1ncnn1)c1ccc([N+](=O)[O-])cc1
inactive: [4] 104 % of control | [5] 104 % of control | [16] 95 % of control

O=C1/C(=C\c2ccccc2)C(NC2CCCCC2)c2ccccc21 (configuration not stated)
inactive: dose: 3.12 mg/kg/injection, schedule: Q01DX005 (ip), vehicle: Klucel (hydroxypropylcellulose) (HPC) 109 % of control | dose: 6.25 mg/kg/injection, schedule: Q01DX005 (ip), vehicle: Klucel (hydroxypropylcellulose) (HPC) 100 % of control | dose: 12.5 mg/kg/injection, schedule: Q01DX005 (ip), vehicle: Klucel (hydroxypropylcellulose) (HPC) 107 % of control | [15] 107 % of control

CC(=O)C(Cl)C(=O)c1c(C)[nH]n(-c2ccccc2)c1=O (configuration not stated)
inactive: [4] 110 % of control | [5] 123 % of control

C#CCSC1=NS(=O)(=O)c2ccccc21
inactive: dose: 7.5 mg/kg/injection, schedule: Q01DX005 (ip), vehicle: saline with Tween-80 115 % of control | [19] 115 % of control | [20] 98 % of control and 115 % of control | [1] 106 % of control

O=[N+]([O-])c1ccc(-c2nc(/C=N/N3CCS(=O)(=O)CC3)cs2)o1
inactive: [8] 99 % of control | [9] 99 % of control | [10] 100 % of control

COc1ccc(C2NC(c3ccc(OC)cc3)C3CCCC2C3O)cc1 (configuration not stated)
inactive: [6] 100 % of control | [7] 97 % of control | dose: 400.0 mg/kg/injection, schedule: Q04DX003 (ip), vehicle: saline 94 % of control

Cc1ccc(S(=O)(=O)N(CCCc2c(C)nc(N)[nH]c2=O)Cc2ccc([N+](=O)[O-])cc2)cc1
inactive: [12] 88 % of control | [13] 86 % of control | [14] 87 % of control

O=C(NCCCCCCCCNC(=O)C(Cl)Cl)C(Cl)Cl
inactive: [21] 106 % of control | [22] 99 % of control | [23] 92 % of control

OCn1nnc2ccccc21
inactive: dose: 25.0 mg/kg/injection, schedule: Q01DX009 (ip), vehicle: Klucel (hydroxypropylcellulose) (HPC) 116 % of control | dose: 50.0 mg/kg/injection, schedule: Q01DX009 (ip), vehicle: Klucel (hydroxypropylcellulose) (HPC) 102 % of control | [17] 112 % of control | [18] 106 % of control

S=C(SSC(=S)N1CCOCC1)N1CCOCC1
inactive: [19] 97 % of control | [20] 102 % of control | [1] 102 % of control and 107 % of control | [2] 104 % of control

C1C[N+]2(CCO1)CC[N+]1(CCOCC1)CC2
inactive: dose: 60.0 mg/kg/injection, schedule: Q01DX005 (ip), vehicle: saline 110 % of control | dose: 120.0 mg/kg/injection, schedule: Q01DX005 (ip), vehicle: saline 101 % of control | dose: 240.0 mg/kg/injection, schedule: Q01DX005 (ip), vehicle: saline 101 % of control

O=C(O)CNC(=O)C(Cc1c[nH]c2ccccc12)NC(=O)OCc1ccccc1 (configuration not stated)
inactive: [21] 95 % of control | [22] 94 % of control | [23] 91 % of control

C=C1CC(OC(C)=O)/C=C(/C)CCC(C(C)(C)O)CC1O (configuration not stated)
inactive: dose: 14.5 mg/kg/injection, schedule: Q01DX005 (ip), vehicle: Klucel + Tween-80 96 % of control | dose: 29.0 mg/kg/injection, schedule: Q01DX005 (ip), vehicle: Klucel + Tween-80 96 % of control | dose: 58.0 mg/kg/injection, schedule: Q01DX005 (ip), vehicle: Klucel + Tween-80 97 % of control | dose: 116.0 mg/kg/injection, schedule: Q01DX005 (ip), vehicle: Klucel + Tween-80 100 % of control

Cc1cc(C)c(C2C(=O)c3ccccc3C2=O)c(C)c1
inactive: [8] 111 % of control | [9] 109 % of control | [10] 116 % of control | [11] 110 % of control
